How the values were obtained:
Type in all cases: in vivo
[1] = test system: LLC cells; experiment: Antitumor effect of combined use of LPA and immune checkpoint inhibitor; conditions: LLC-bearing mice; LPA 3 mg/kg i.p. day 6 to day 20; anti-PD-1 antibody 100 μg/mouse i.p. on days 7, 9, 11, 14, 16, 18; volume until day 21
Method: LLC cells (1×10^6 cells in 100 μL PBS per animal) were subcutaneously injected into C57BL/6 NCrSlc mice aged 8 weeks (females) in the same manner as in Reference Example 1. On day 6 post-inoculation, LLC-bearing mice that had developed a tumor with a volume of 30 to 40 mm^3 (volume=length×width×height×0.5) were selected. The mice were divided into four groups: a control group, an LPA administration group, an anti-PD-1 antibody administration group and an LPA plus anti-PD-1 antibody administration group, and subjected to the experiment. To the LPA administration group and to the LPA plus anti-PD-1 antibody administration group, LPA (3 mg/kg/100 μL) was intraperitoneally administered consecutively from day 6 through day 20 post-inoculation of the tumor cells. In the anti-PD-1 antibody administration group and in the LPA plus anti-PD-1 antibody administration group, anti-PD-1antibody therapy was started from day 7 post-inoculation of the tumor cells. Specifically, an anti-mouse PD-1 antibody (Clone: RMP1-14, BioXcell, BE0146) was intraperitoneally administered at a dose of 100 μg/mouse on day 7, day 9, day 11, day 14, day 16 and day 18 post-inoculation of the tumor cells. […] Tumor volume was measured over time until day 21.

[2] = test system: luminal surface of tumor blood vessels in LLC tumor-bearing mice; experiment: Structural changes in lumina of tumor blood vessels (scanning electron microscopy); conditions: 3 mg/kg intraperitoneally, 24 hours after administration, scanning electron microscope
Method: LLC cells were subcutaneously inoculated into C57BL/6 NCrSlc mice aged 8 weeks (females, SLC, Inc.) in the same manner as in Reference Example 1. An LPA solution for administration was prepared in the same manner as in Reference Example 1. LLC-bearing mice on day 9 post-inoculation (animals with a tumor volume of 60 to 80 mm^3) were subjected to the experiment. The mice were divided into two groups: a control group and an LPA group (n=3 per group). After grouping, LPA (3 mg/kg/100 μL) or PBS (100 μL) was intraperitoneally administered to the mice. At 24 hours after LPA or PBS administration, the mice were fixed by perfusion with a fixative under anesthesia with pentobarbital (Kyoritsu Seiyaku Corporation). The fixative used was 0.1 M phosphate buffer (pH 7.4) containing 2% formaldehyde and 2.5% glutaraldehyde. After the fixation by perfusion, the tumors were harvested, immersed in the same fixative as used for perfusion, and shaken at 4° C. overnight. The tumors were further immersed in 0.1 M phosphate buffer (pH 7.4) containing 1% osmium tetroxide and 0.5% potassium ferrocyanide for fixation. The tumors were dehydrated in an ascending series of ethanol, then the alcohol was replaced with t-butyl alcohol, and the tumors were freeze-dried.

[3] = test system: LLC tumor in mice; experiment: Drug (doxorubicin) delivery from tumor blood vessels to tumor tissues after LPA administration; conditions: LLC-bearing mice, LPA 3 mg/kg i.p., doxorubicin 1.5 mg/kg via tail vein 24 hours later, tumors harvested at 20 minutes
Excerpt: As is commonly known, low blood flow and vascular hyperpermeability are the hallmarks of tumors. These cause an increase in tumor interstitial fluid pressure, leading to no difference in osmotic pressure between the tumor parenchyma and the blood vessels. This condition is a great obstacle to substance penetration from the vascular lumen to tumor tissues. Based on the above results showing that LPA administration induces a dense network formation of tumor blood vessels with a smooth luminal surface, it was hypothesized that LPA administration would improve drug penetration from tumor blood vessels. To examine drug penetration into tumors after LPA administration, the following experiments were conducted.
LLC cells were subcutaneously inoculated into C57BL/6 NCrSlc mice aged 8 weeks (females, SLC, Inc.) in the same manner as in Reference Example 1. An LPA solution for administration was prepared in the same manner as in Reference Example 1. On day 11 post-inoculation, LLC-bearing mice that had developed a tumor with a volume of 100 to 120 mm^3 were selected. The mice were divided into two groups: a control group and an LPA group (n=3 per group). After grouping, LPA (3 mg/kg/100 μL) or PBS (100 μL) was intraperitoneally administered to the mice. […] Doxorubicin is a fluorescent anticancer drug that can be detected at an excitation wavelength of 480 nm and a measurement wavelength of 575 nm. […]

[4] = test system: LLC cells; experiment: Tumor growth inhibition, subcutaneous tumor formed from LLC cells; conditions: LLC-bearing mice; LPA 3 mg/kg i.p. once daily for seven days; 5-FU 100 mg/kg i.p. once weekly, 2 times
Method: LLC cells (1×10^6 cells in 100 μL PBS per animal) were subcutaneously injected into C57BL/6 NCrSlc mice aged 8 weeks (females) in the same manner as in Reference Example 1. An LPA solution for administration was prepared in the same manner as in Reference Example 1. 5-FU (Kyowa Hakko Kirin Co., Ltd.) was used as an anticancer drug. 5-FU was prepared as a solution in physiological saline (Otsuka Pharmaceutical Co., Ltd.). On day 7 post-inoculation, LLC-bearing mice that had developed a tumor with a volume of 30 to 50 mm^3 were selected and subjected to the experiment. The mice were assigned to three groups: a control group, a 5-FU group and an LPA group (n=3 per group). After grouping, LPA (3 mg/kg/100 μL), 5-FU (100 mg/kg/100 μL) or PBS (100 μL) was intraperitoneally administered to the mice. The administration of LPA or PBS was performed once daily for consecutive seven days. The administration of 5-FU was performed once weekly, 2 times in total (day 7 and day 14 post-inoculation). Tumor size was measured over time after the start of the administration. Tumor volume was calculated by the following formula: length×width×height×0.5.

## lysophosphatidic acid [LPA]
[1]
  inhibition of tumor growth (tumor volume) versus control group: slightly inhibited tumor growth
[2]
  luminal surface of tumor blood vessels: very smooth luminal surface
[3]
  penetration of doxorubicin into tumors: delivery of doxorubicin from tumor blood vessels to the deep part of the tumor was observed
[4]
  inhibition of tumor growth (tumor volume) versus control group: albeit to a slightly lesser extent, the LPA group also showed inhibition of tumor growth

From patent publication US11033559B2, “Leukocyte infiltration promoting agent and antitumor immunostimulatory agent” (OSAKA UNIVERSITY, priority 2015, dated 2021)
